Results as given in ChEMBL document CHEMBL4715697, “Synthesis and biological activity of benzamide DNA minor groove binders” (2016).

Legend:
Assay type in all cases: functional
Conditions in all cases: read-out: Activity
SF-268 = assay: Growth inhibition of human SF-268 cells assessed as cell growth at 10 uM incubated for 48 hrs by sulforhodamine B assay relative to control
NCI-H226 = assay: Growth inhibition of human NCI-H226 cells assessed as cell growth at 10 uM incubated for 48 hrs by sulforhodamine B assay relative to control
K562 = assay: Growth inhibition of human K562 cells assessed as cell growth at 10 uM incubated for 48 hrs by sulforhodamine B assay relative to control
U-251 = assay: Growth inhibition of human U-251 cells assessed as cell growth at 10 uM incubated for 48 hrs by sulforhodamine B assay relative to control
EKVX = assay: Growth inhibition of human EKVX cells assessed as cell growth at 10 uM incubated for 48 hrs by sulforhodamine B assay relative to control
NCI-H522 = assay: Growth inhibition of human NCI-H522 cells assessed as cell growth at 10 uM incubated for 48 hrs by sulforhodamine B assay relative to control
SR = assay: Growth inhibition of human SR cells assessed as cell growth at 10 uM incubated for 48 hrs by sulforhodamine B assay relative to control
HT-29 = assay: Growth inhibition of human HT-29 cells assessed as cell growth at 10 uM incubated for 48 hrs by sulforhodamine B assay relative to control
BT-549 = assay: Growth inhibition of human BT-549 cells assessed as cell growth at 10 uM incubated for 48 hrs by sulforhodamine B assay relative to control
M14 = assay: Growth inhibition of human M14 cells assessed as cell growth at 10 uM incubated for 48 hrs by sulforhodamine B assay relative to control
SN12C = assay: Growth inhibition of human SN12C cells assessed as cell growth at 10 uM incubated for 48 hrs by sulforhodamine B assay relative to control
HCT-15 = assay: Growth inhibition of human HCT-15 cells assessed as cell growth at 10 uM incubated for 48 hrs by sulforhodamine B assay relative to control
UO-31 = assay: Growth inhibition of human UO-31 cells assessed as cell growth at 10 uM incubated for 48 hrs by sulforhodamine B assay relative to control
OVCAR-3 = assay: Growth inhibition of human OVCAR-3 cells assessed as cell growth at 10 uM incubated for 48 hrs by sulforhodamine B assay relative to control
NCI-H322M = assay: Growth inhibition of human NCI-H322M cells assessed as cell growth at 10 uM incubated for 48 hrs by sulforhodamine B assay relative to control
SNB-19 = assay: Growth inhibition of human SNB-19 cells assessed as cell growth at 10 uM incubated for 48 hrs by sulforhodamine B assay relative to control
HCC 2998 = assay: Growth inhibition of human HCC 2998 cells assessed as cell growth at 10 uM incubated for 48 hrs by sulforhodamine B assay relative to control
HL-60(TB) = assay: Growth inhibition of human HL-60(TB) cells assessed as cell growth at 10 uM incubated for 48 hrs by sulforhodamine B assay relative to control
MDA-MB-435 = assay: Growth inhibition of human MDA-MB-435 cells assessed as cell growth at 10 uM incubated for 48 hrs by sulforhodamine B assay relative to control
Malme-3M = assay: Growth inhibition of human Malme-3M cells assessed as cell growth at 10 uM incubated for 48 hrs by sulforhodamine B assay relative to control
HOP-62 = assay: Growth inhibition of human HOP-62 cells assessed as cell growth at 10 uM incubated for 48 hrs by sulforhodamine B assay relative to control
NCI-H460 = assay: Growth inhibition of human NCI-H460 cells assessed as cell growth at 10 uM incubated for 48 hrs by sulforhodamine B assay relative to control
UACC-62 = assay: Growth inhibition of human UACC-62 cells assessed as cell growth at 10 uM incubated for 48 hrs by sulforhodamine B assay relative to control
T47D = assay: Growth inhibition of human T47D cells assessed as cell growth at 10 uM incubated for 48 hrs by sulforhodamine B assay relative to control
OVCAR-8 = assay: Growth inhibition of human OVCAR-8 cells assessed as cell growth at 10 uM incubated for 48 hrs by sulforhodamine B assay relative to control
TK-10 = assay: Growth inhibition of human TK-10 cells assessed as cell growth at 10 uM incubated for 48 hrs by sulforhodamine B assay relative to control
SK-MEL-2 = assay: Growth inhibition of human SK-MEL-2 cells assessed as cell growth at 10 uM incubated for 48 hrs by sulforhodamine B assay relative to control
A549 = assay: Growth inhibition of human A549/ATCC cells assessed as cell growth at 10 uM incubated for 48 hrs by sulforhodamine B assay relative to control
NCI-H23 = assay: Growth inhibition of human NCI-H23 cells assessed as cell growth at 10 uM incubated for 48 hrs by sulforhodamine B assay relative to control
MOLT-4 = assay: Growth inhibition of human MOLT-4 cells assessed as cell growth at 10 uM incubated for 48 hrs by sulforhodamine B assay relative to control
MCF7 = assay: Growth inhibition of human MCF7 cells assessed as cell growth at 10 uM incubated for 48 hrs by sulforhodamine B assay relative to control
OVCAR-5 = assay: Growth inhibition of human OVCAR-5 cells assessed as cell growth at 10 uM incubated for 48 hrs by sulforhodamine B assay relative to control
KM12 = assay: Growth inhibition of human KM12 cells assessed as cell growth at 10 uM incubated for 48 hrs by sulforhodamine B assay relative to control
RPMI-8226 = assay: Growth inhibition of human RPMI-8226 cells assessed as cell growth at 10 uM incubated for 48 hrs by sulforhodamine B assay relative to control
MDA-MB-231 = assay: Growth inhibition of human MDA-MB-231 cells assessed as cell growth at 10 uM incubated for 48 hrs by sulforhodamine B assay relative to control
HCT-116 = assay: Growth inhibition of human HCT-116 cells assessed as cell growth at 10 uM incubated for 48 hrs by sulforhodamine B assay relative to control
RXF 393 = assay: Growth inhibition of human RXF 393 cells assessed as cell growth at 10 uM incubated for 48 hrs by sulforhodamine B assay relative to control
ACHN = assay: Growth inhibition of human ACHN cells assessed as cell growth at 10 uM incubated for 48 hrs by sulforhodamine B assay relative to control
CAKI-1 = assay: Growth inhibition of human CAKI-1 cells assessed as cell growth at 10 uM incubated for 48 hrs by sulforhodamine B assay relative to control
IGROV-1 = assay: Growth inhibition of human IGROV-1 cells assessed as cell growth at 10 uM incubated for 48 hrs by sulforhodamine B assay relative to control

SMILES	growth at 10 µM (SF-268) [%]	growth at 10 µM (NCI-H226) [%]	growth at 10 µM (K562) [%]	growth at 10 µM (U-251) [%]	growth at 10 µM (EKVX) [%]	growth at 10 µM (NCI-H522) [%]	growth at 10 µM (HT-29) [%]	growth at 10 µM (BT-549) [%]	growth at 10 µM (M14) [%]	growth at 10 µM (SN12C) [%]	growth at 10 µM (HCT-15) [%]	growth at 10 µM (UO-31) [%]	growth at 10 µM (OVCAR-3) [%]	growth at 10 µM (NCI-H322M) [%]	growth at 10 µM (SNB-19) [%]	growth at 10 µM (HCC 2998) [%]	growth at 10 µM (HL-60(TB)) [%]	growth at 10 µM (MDA-MB-435) [%]	growth at 10 µM (Malme-3M) [%]	growth at 10 µM (HOP-62) [%]	also measured
CC(=O)Nc1ccc(C(=O)Nc2cc(CO)cc(NC(C)=O)c2)cc1	108	99.9	99.5	110	112	89.5	106	108	98.3	104	106	101	123	109	100	99.4	101	108	115	106	growth at 10 µM (SR): 92.1%; growth at 10 µM (NCI-H460): 109%; growth at 10 µM (UACC-62): 101%; growth at 10 µM (T47D): 94.7%; growth at 10 µM (OVCAR-8): 109%; growth at 10 µM (TK-10): 101%; growth at 10 µM (SK-MEL-2): 96.3%; growth at 10 µM (A549): 108%; growth at 10 µM (NCI-H23): 107%; growth at 10 µM (MOLT-4): 96%; growth at 10 µM (MCF7): 95.3%; growth at 10 µM (OVCAR-5): 105%; growth at 10 µM (KM12): 115%; growth at 10 µM (RPMI-8226): 96.6%; growth at 10 µM (MDA-MB-231): 115%; growth at 10 µM (HCT-116): 106%; growth at 10 µM (RXF 393): 112%; growth at 10 µM (ACHN): 108%
CC(=O)Nc1cc(CO)cc(NC(=O)c2ccc(C(=O)NCCCN(C)C)cc2)c1	114	92	104	107	108	88.4	100	98.6	98.6	95.6	106	98.1	129	121	101	102	104	103	100	110	growth at 10 µM (SR): 91.7%; growth at 10 µM (CAKI-1): 109%; growth at 10 µM (NCI-H460): 112%; growth at 10 µM (UACC-62): 95.9%; growth at 10 µM (T47D): 92.9%; growth at 10 µM (OVCAR-8): 108%; growth at 10 µM (TK-10): 99%; growth at 10 µM (SK-MEL-2): 92.9%; growth at 10 µM (A549): 107%; growth at 10 µM (NCI-H23): 104%; growth at 10 µM (MOLT-4): 95.4%; growth at 10 µM (MCF7): 101%; growth at 10 µM (OVCAR-5): 107%; growth at 10 µM (KM12): 118%; growth at 10 µM (RPMI-8226): 98.2%; growth at 10 µM (MDA-MB-231): 105%; growth at 10 µM (HCT-116): 104%; growth at 10 µM (RXF 393): 116%; growth at 10 µM (ACHN): 108%
CC(=O)Nc1cc(CCl)cc(NC(=O)c2ccc(C(=O)NCCCN(C)C)cc2)c1	106	105	106	103	101	98.7	103	105	107	128	104	103	106	116	117	90	104	105	109	106	growth at 10 µM (IGROV-1): 136%; growth at 10 µM (CAKI-1): 102%; growth at 10 µM (NCI-H460): 104%; growth at 10 µM (UACC-62): 114%; growth at 10 µM (T47D): 97.6%; growth at 10 µM (OVCAR-8): 111%; growth at 10 µM (TK-10): 107%; growth at 10 µM (SK-MEL-2): 102%; growth at 10 µM (A549): 98.5%; growth at 10 µM (NCI-H23): 97.8%; growth at 10 µM (MOLT-4): 105%; growth at 10 µM (MCF7): 81.5%; growth at 10 µM (OVCAR-5): 97.5%; growth at 10 µM (KM12): 107%; growth at 10 µM (MDA-MB-231): 139%; growth at 10 µM (HCT-116): 103%; growth at 10 µM (RXF 393): 116%; growth at 10 µM (ACHN): 105%
CCN(CC)CC(=O)Nc1cccc(C(=O)Nc2cc(CO)cc(NC(C)=O)c2)c1	113	95.7	105	103	120	93.8	103	105	103	112	103	96.6	126	117	105	95.8	105	110	102	96.9	growth at 10 µM (IGROV-1): 130%; growth at 10 µM (CAKI-1): 112%; growth at 10 µM (NCI-H460): 104%; growth at 10 µM (UACC-62): 106%; growth at 10 µM (T47D): 92.9%; growth at 10 µM (OVCAR-8): 115%; growth at 10 µM (TK-10): 96.6%; growth at 10 µM (SK-MEL-2): 99.8%; growth at 10 µM (A549): 103%; growth at 10 µM (NCI-H23): 98.4%; growth at 10 µM (MOLT-4): 111%; growth at 10 µM (MCF7): 88.9%; growth at 10 µM (OVCAR-5): 105%; growth at 10 µM (KM12): 110%; growth at 10 µM (MDA-MB-231): 126%; growth at 10 µM (HCT-116): 99.6%; growth at 10 µM (RXF 393): 102%; growth at 10 µM (ACHN): 105%
CC(=O)Nc1cccc(NC(=O)c2ccc(C(=O)Nc3cc(CCl)cc(NC(C)=O)c3)cc2)c1	115	101	104	113	114	90.8	111	108	104	102	109	104	128	125	104	103	93.4	108	99.6	112	growth at 10 µM (SR): 103%; growth at 10 µM (CAKI-1): 115%; growth at 10 µM (NCI-H460): 112%; growth at 10 µM (UACC-62): 98.3%; growth at 10 µM (T47D): 95.8%; growth at 10 µM (OVCAR-8): 108%; growth at 10 µM (TK-10): 113%; growth at 10 µM (SK-MEL-2): 100%; growth at 10 µM (A549): 118%; growth at 10 µM (NCI-H23): 107%; growth at 10 µM (MOLT-4): 93.3%; growth at 10 µM (MCF7): 102%; growth at 10 µM (OVCAR-5): 112%; growth at 10 µM (KM12): 118%; growth at 10 µM (RPMI-8226): 98.8%; growth at 10 µM (MDA-MB-231): 115%; growth at 10 µM (HCT-116): 116%; growth at 10 µM (RXF 393): 114%; growth at 10 µM (ACHN): 109%
